Laboratory results published in ChEMBL document CHEMBL6096738, “Optimization of Single Relaxin B-Chain Peptide Leads to the Identification of R2R01, a Potent, Long-Acting RXFP1 Agonist for Cardiovascular and Renal Diseases” (J Med Chem, 2025).
Starred links: 1 amine or outer side, 2 acyl side, 3 side chain; linkers in the order of their positions; H or OH if unused. Non-standard residues stand in square brackets, D forms with d. Residues, ends and D or L forms follow the SMILES beside them. Groups on a side chain read outwards from the residue. *: point of attachment. X3 = CCCCCCCCCCCCCCCCCC(=O)N[C@@H](CCC(=O)N[C@@H](CCC(=O)N[C@@H](CCC(=O)NCCCOCCOCCOCCCNC(=O)CCC(=O)NCCCOCCOCCOCCCNC(=O)CCC(=O)NCCCOCCOCCOCCCN*)C(=O)O)C(=O)O)C(=O)O; X2 = CCCCCCCCCCCCCCCC(=O)N[C@@H](CCC(=O)N[C@@H](CCC(=O)N[C@@H](CCC(=O)NCCCOCCOCCOCCCNC(=O)CCC(=O)NCCCOCCOCCOCCCNC(=O)CCC(=O)NCCCOCCOCCOCCCN*)C(=O)O)C(=O)O)C(=O)O; Suc = O=C(CCC(=O)[*:2])[*:1]; Aib = CC(C)(N)C(=O)O

How the values were obtained:
[1] = Induction of mast cell degranulation in human LAD2 cells assessed as beta-hexosaminidase release by measuring maximal efficacy of 4-methylumbelliferyl N-acetyl-beta-D-glucosaminide hydrolysis at 10 uM incubated for 30 mins by plate reader analysis relative to control; type: toxicity, cell-based; conditions: probe 4-methylumbelliferyl N-acetyl-beta-D-glucosaminide
[2] = Induction of mast cell degranulation in human LAD2 cells assessed as beta-hexosaminidase release by measuring 4-methylumbelliferyl N-acetyl-beta-D-glucosaminide hydrolysis incubated for 30 mins by plate reader analysis; type: toxicity, cell-based; conditions: probe 4-methylumbelliferyl N-acetyl-beta-D-glucosaminide
[3] = Induction of mast cell degranulation in human LAD2 cells assessed as beta-hexosaminidase release by measuring maximal efficacy of 4-methylumbelliferyl N-acetyl-beta-D-glucosaminide hydrolysis at 100 uM incubated for 30 mins by plate reader analysis relative to control; type: toxicity, cell-based; conditions: probe 4-methylumbelliferyl N-acetyl-beta-D-glucosaminide
[4] = target: T1, Relaxin receptor 1 (Homo sapiens) (UniProt Q9HBX9); experiment: Agonist activity at human RXFP1 expressed in 2%HSA treated human OVCAR-5 cells assessed as intracellular cAMP accumulation by measuring maximal efficacy incubated for 30 mins with 2% HSA pretreated compound by HTRF assay relative to control; type: functional, cell-based; conditions: filed as agonist
T1 sequence (whole entry): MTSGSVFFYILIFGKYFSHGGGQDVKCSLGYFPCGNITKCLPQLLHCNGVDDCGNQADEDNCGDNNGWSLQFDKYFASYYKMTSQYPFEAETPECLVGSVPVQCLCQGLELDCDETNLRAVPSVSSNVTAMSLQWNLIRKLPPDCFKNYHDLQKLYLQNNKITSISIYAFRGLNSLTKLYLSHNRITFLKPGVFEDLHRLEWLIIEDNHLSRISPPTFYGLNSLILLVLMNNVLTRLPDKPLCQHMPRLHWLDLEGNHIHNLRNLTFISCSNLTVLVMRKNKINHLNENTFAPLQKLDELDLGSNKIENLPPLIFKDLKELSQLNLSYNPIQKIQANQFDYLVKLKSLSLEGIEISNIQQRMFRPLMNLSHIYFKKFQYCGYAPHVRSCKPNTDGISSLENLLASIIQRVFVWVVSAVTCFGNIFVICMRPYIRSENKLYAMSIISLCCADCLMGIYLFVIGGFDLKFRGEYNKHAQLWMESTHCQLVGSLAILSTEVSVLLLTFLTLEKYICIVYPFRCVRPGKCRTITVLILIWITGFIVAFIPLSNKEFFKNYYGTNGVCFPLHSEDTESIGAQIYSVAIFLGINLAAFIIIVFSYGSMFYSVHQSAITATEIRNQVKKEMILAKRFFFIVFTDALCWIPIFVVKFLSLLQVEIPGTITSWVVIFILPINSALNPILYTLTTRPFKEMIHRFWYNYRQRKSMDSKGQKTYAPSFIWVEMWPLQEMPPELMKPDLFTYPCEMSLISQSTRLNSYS

[5] = target: T1, Relaxin receptor 1 (Homo sapiens); experiment: Agonist activity at human RXFP1 expressed in human OVCAR-5 cells assessed as intracellular cAMP accumulation by measuring maximal efficacy incubated for 30 mins by HTRF assay relative to control; type: functional, cell-based; conditions: filed as agonist
Relaxin receptor 1 [6] = target: T2, Relaxin receptor 1 (Homo sapiens, UniProt Q9HBX9); experiment: Agonist activity at human RXFP1 expressed in 2%HSA treated human OVCAR-5 cells assessed as intracellular cAMP accumulation incubated for 30 mins with 2% HSA pretreated compound by HTRF assay; type: functional, cell-based
T2 sequence (Q9HBX9 whole entry): T1 sequence (whole entry)

Relaxin receptor 1 [7] = target: T2, Relaxin receptor 1; experiment: Agonist activity at human RXFP1 expressed in human OVCAR-5 cells assessed as intracellular cAMP accumulation incubated for 30 mins by HTRF assay; type: functional, cell-based
[8] = Half-life in male Sprague-Dawley rat at 1 mg/kg, iv measured after 198 hrs by LC-HRMS analysis; type: ADME, organism-based; conditions: in vivo

Row | SMILES | Emax at 0.5 h, 10 µM [1] [%] | EC50 at 30 min [2] [nM] | Emax at 0.5 h, 100 µM [3] [%] | Emax [4] [%] | Emax [5] [%] | EC50 (Relaxin receptor 1 [6]) [nM] | EC50 (Relaxin receptor 1 [7]) [nM] | half-life [8] [h]
1 | CC[C@H](C)[C@H](NC(=O)[C@H](Cc1ccccc1)NC(=O)[C@H](CCC(=O)O)NC(=O)[C@H](CCCCN)NC(=O)[C@H](C)NC(=O)[C@H](C)NC(=O)[C@H](CCC(N)=O)NC(=O)CNC(=O)[C@H](CCC(=O)O)NC(=O)[C@H](CC(C)C)NC(=O)[C@H](Cc1ccc(O)cc1)NC(=O)[C@H](CO)NC(=O)[C@H](CO)NC(=O)[C@@H](NC(=O)[C@H](CC(=O)O)NC(=O)[C@H](CO)NC(=O)[C@@H](NC(=O)[C@H](Cc1ccccc1)NC(=O)[C@@H](NC(=O)CNC(=O)[C@H](CCC(=O)O)NC(=O)[C@H](C)NC(=O)[C@@H](N)Cc1c[nH]cn1)[C@@H](C)O)[C@@H](C)O)C(C)C)C(=O)N[C@@H](C)C(=O)N[C@@H](Cc1c[nH]c2ccccc12)C(=O)N[C@@H](CC(C)C)C(=O)N[C@H](C(=O)N[C@@H](CCCCN)C(=O)NCC(=O)N[C@@H](CCCNC(=N)N)C(N)=O)C(C)C | 2.5 | […] | – | – | – | – | – | –
2 | CCCCCCCCCCCCCCCC(=O)N[C@H](CCC(=O)N[C@H](CCC(=O)N[C@H](CCC(=O)NCCCOCCOCCOCCCNC(=O)CCC(=O)NCCCOCCOCCOCCCNC(=O)CCC(=O)NCCCOCCOCCOCCCNC(=O)CCC(=O)NCCCC[C@H](NC(=O)[C@H](CO)NC(=O)[C@H](Cc1c[nH]c2ccccc12)NC(=O)[C@@H](NC(=O)[C@H](CO)NC(=O)[C@H](CCC(N)=O)NC(=O)CNC(=O)[C@H](CCC(=O)O)NC(=O)C(C)(C)NC(=O)C(C)(C)NC(=O)[C@@H](NC(=O)[C@H](CCCCNC(C)=O)NC(=O)[C@H](C)NC(=O)[C@H](CCCNC(=N)N)NC(=O)[C@@H](NC(=O)[C@H](CCCCN)NC(=O)[C@H](CCC(=O)O)NC(=O)[C@H](CCCNC(=N)N)NC(=O)CNC(=O)[C@H](CCC(=O)O)NC(=O)[C@H](CC(C)C)NC(C)=O)C(C)C)[C@@H](C)CC)[C@H](C)O)C(=O)N[C@@H](CCCNC(=N)N)C(=O)N[C@@H](CCCCN)C(=O)N[C@@H](CCCCNC(C)=O)C(N)=O)C(=O)O)C(=O)O)C(=O)O | – | 13400 | 24 | 92 | 94 | 90 | 0.38 | –
3 | CCCCCCCCCCCCCCCC(=O)N[C@@H](CCC(=O)N[C@@H](CCC(=O)N[C@@H](CCC(=O)NC(=O)CCOCCOCCOCCOCCOCCOCCOCCOCCOCCOCCOCCOCCNCCCC[C@H](NC(=O)[C@H](C)NC(=O)[C@H](CCCNC(=N)N)NC(=O)[C@@H](NC(=O)[C@H](CCCCN)NC(=O)[C@H](CCC(=O)O)NC(=O)[C@H](CCCNC(=N)N)NC(=O)CNC(=O)[C@H](CCC(=O)O)NC(=O)[C@H](CC(C)C)NC(C)=O)C(C)C)C(=O)N[C@H](C(=O)NC(C)(C)C(=O)NC(C)(C)C(=O)N[C@@H](CCC(=O)O)C(=O)NCC(=O)N[C@@H](CCCC)C(=O)N[C@@H](CO)C(=O)N[C@H](C(=O)N[C@@H](Cc1c[nH]c2ccccc12)C(=O)N[C@@H](CO)C(=O)NC(C)(C)C(=O)N[C@@H](CCCNC(=N)N)C(=O)N[C@@H](CCCCN)C(=O)N[C@@H](CCCCNC(C)=O)C(N)=O)[C@@H](C)O)[C@@H](C)CC)C(=O)O)C(=O)O)C(=O)O | 59.7 | 2420 | – | 73 | 78 | 132 | 6.2 | –
4 | CCCCCCCCCCCCCCCC(=O)N[C@@H](CCC(=O)N[C@@H](CCC(=O)N[C@@H](CCC(=O)NCCCOCCOCCOCCCNC(=O)CCC(=O)NCCCOCCOCCOCCCNC(=O)CCC(=O)NCCCOCCOCCOCCCNC(=O)CCC(=O)NCCCC[C@H](NC(=O)[C@@H](NC(=O)[C@H](CCCCNC(C)=O)NC(=O)[C@H](C)NC(=O)[C@H](CCCNC(=N)N)NC(=O)[C@@H](NC(=O)[C@H](CCCCN)NC(=O)[C@H](CCC(=O)O)NC(=O)[C@H](CCCNC(=N)N)NC(=O)CNC(=O)[C@H](CCC(=O)O)NC(=O)[C@H](CC(C)C)NC(C)=O)C(C)C)[C@@H](C)CC)C(=O)NC(C)(C)C(=O)N[C@@H](CCC(=O)O)C(=O)NCC(=O)N[C@@H](CCC(N)=O)C(=O)N[C@@H](CO)C(=O)N[C@H](C(=O)N[C@@H](Cc1c[nH]c2ccccc12)C(=O)N[C@@H](CO)C(=O)NC(C)(C)C(=O)N[C@@H](CCCNC(=N)N)C(=O)N[C@@H](CCCCN)C(=O)N[C@@H](CCCCNC(C)=O)C(N)=O)[C@@H](C)O)C(=O)O)C(=O)O)C(=O)O (Ac-LEGREKVRAK(Ac)IK([Suc-X2])[Aib]EGQSTWS[Aib]RKK(Ac)-NH2) | – | 13600 | 11 | 90 | 87 | 80 | 0.21 | –
5 | CCCCCCCCCCCCCCCCCC(=O)N[C@@H](CCC(=O)N[C@@H](CCC(=O)N[C@@H](CCC(=O)NCCCOCCOCCOCCCNC(=O)CCC(=O)NCCCOCCOCCOCCCNC(=O)CCC(=O)NCCCOCCOCCOCCCNC(=O)CCC(=O)NCCCC[C@H](NC(=O)CNC(=O)[C@H](CCC(=O)O)NC(=O)C(C)(C)NC(=O)C(C)(C)NC(=O)[C@@H](NC(=O)[C@H](CCCCNC(C)=O)NC(=O)[C@H](C)NC(=O)[C@H](CCCNC(=N)N)NC(=O)[C@@H](NC(=O)[C@H](CCCCN)NC(=O)[C@H](CCC(=O)O)NC(=O)[C@H](CCCNC(=N)N)NC(=O)CNC(=O)[C@H](CCC(=O)O)NC(=O)[C@H](CC(C)C)NC(C)=O)C(C)C)[C@@H](C)CC)C(=O)N[C@@H](CO)C(=O)N[C@H](C(=O)N[C@@H](Cc1c[nH]c2ccccc12)C(=O)N[C@@H](CO)C(=O)NC(C)(C)C(=O)N[C@@H](CCCNC(=N)N)C(=O)N[C@@H](CCCCN)C(=O)N[C@@H](CCCCNC(C)=O)C(N)=O)[C@@H](C)O)C(=O)O)C(=O)O)C(=O)O (Ac-LEGREKVRAK(Ac)I[Aib][Aib]EGK([Suc-X3])STWS[Aib]RKK(Ac)-NH2) | 70 | 6430 | – | 97 | 96 | 10.8 | 0.2 | 5.13
6 | CCCCCCCCCCCCCCCC(=O)N[C@@H](CCC(=O)N[C@@H](CCC(=O)N[C@@H](CCC(=O)NCCCOCCOCCOCCCNC(=O)CCC(=O)NCCCOCCOCCOCCCNC(=O)CCC(=O)NCCCOCCOCCOCCCNC(=O)CCC(=O)NCCCC[C@H](NC(=O)[C@H](CCC(N)=O)NC(=O)CNC(=O)[C@H](CCC(=O)O)NC(=O)C(C)(C)NC(=O)C(C)(C)NC(=O)[C@@H](NC(=O)[C@H](CCCCNC(C)=O)NC(=O)[C@H](C)NC(=O)[C@H](CCCNC(=N)N)NC(=O)[C@@H](NC(=O)[C@H](CCCCN)NC(=O)[C@H](CCC(=O)O)NC(=O)[C@H](CCCNC(=N)N)NC(=O)CNC(=O)[C@H](CCC(=O)O)NC(=O)[C@H](CC(C)C)NC(C)=O)C(C)C)[C@@H](C)CC)C(=O)N[C@H](C(=O)N[C@@H](Cc1c[nH]c2ccccc12)C(=O)N[C@@H](CO)C(=O)NC(C)(C)C(=O)N[C@@H](CCCNC(=N)N)C(=O)N[C@@H](CCCCN)C(=O)N[C@@H](CCCCNC(C)=O)C(N)=O)[C@@H](C)O)C(=O)O)C(=O)O)C(=O)O (Ac-LEGREKVRAK(Ac)I[Aib][Aib]EGQK([Suc-X2])TWS[Aib]RKK(Ac)-NH2) | – | 12800 | 32 | – | 90 | > 2000 | 25 | –
7 | CCCCCCCCCCCCCCCC(=O)N[C@@H](CCC(=O)N[C@@H](CCC(=O)N[C@@H](CCC(=O)NCCCOCCOCCOCCCNC(=O)CCC(=O)NCCCOCCOCCOCCCNC(=O)CCC(=O)NCCCOCCOCCOCCCNC(=O)CCC(=O)NCCCC[C@H](NC(=O)[C@H](C)NC(=O)[C@H](CCCNC(=N)N)NC(=O)[C@@H](NC(=O)[C@H](CCCCN)NC(=O)[C@H](CCC(=O)O)NC(=O)[C@H](CCCNC(=N)N)NC(=O)CNC(=O)[C@H](CCC(=O)O)NC(=O)[C@H](CC(C)C)NC(C)=O)C(C)C)C(=O)N[C@H](C(=O)NC(C)(C)C(=O)NC(C)(C)C(=O)N[C@@H](CCC(=O)O)C(=O)NCC(=O)N[C@@H](CCC(N)=O)C(=O)N[C@@H](CO)C(=O)N[C@H](C(=O)N[C@@H](Cc1c[nH]c2ccccc12)C(=O)N[C@@H](CO)C(=O)NC(C)(C)C(=O)N[C@@H](CCCNC(=N)N)C(=O)N[C@@H](CCCCN)C(=O)N[C@@H](CCCCNC(C)=O)C(N)=O)[C@@H](C)O)[C@@H](C)CC)C(=O)O)C(=O)O)C(=O)O (Ac-LEGREKVRAK([Suc-X2])I[Aib][Aib]EGQSTWS[Aib]RKK(Ac)-NH2) | – | 12500 | 40 | 90 | 95 | 68.6 | 0.61 | –
